According to US20230391768A2, “IMIDAZOPYRIDINE DERIVATIVES AND AZA-IMIDAZOPYRIDINE DERIVATIVES AS JANUS KINASE 2 INHIBITORS AND USES THEREOF” (Dana-Farber Cancer Institute, Inc., priority 2018, published 2023):

Legend:
Test in all cases: KINOMEscan
Format in all cases: binding
[1] = biological target: PAK6 (Homo sapiens (Human), UniProt Q9NQU5); conditions: read-out: percent of control
Description: (§1) In vitro profiling of Compound I-2 (1 μM) was performed using the DiscoveRx KINOMEscan® platform.

[2] = biological target: NEK4 (Homo sapiens (Human), UniProt P51957); conditions: read-out: percent of control
Chain of NEK4 (P51957 whole entry): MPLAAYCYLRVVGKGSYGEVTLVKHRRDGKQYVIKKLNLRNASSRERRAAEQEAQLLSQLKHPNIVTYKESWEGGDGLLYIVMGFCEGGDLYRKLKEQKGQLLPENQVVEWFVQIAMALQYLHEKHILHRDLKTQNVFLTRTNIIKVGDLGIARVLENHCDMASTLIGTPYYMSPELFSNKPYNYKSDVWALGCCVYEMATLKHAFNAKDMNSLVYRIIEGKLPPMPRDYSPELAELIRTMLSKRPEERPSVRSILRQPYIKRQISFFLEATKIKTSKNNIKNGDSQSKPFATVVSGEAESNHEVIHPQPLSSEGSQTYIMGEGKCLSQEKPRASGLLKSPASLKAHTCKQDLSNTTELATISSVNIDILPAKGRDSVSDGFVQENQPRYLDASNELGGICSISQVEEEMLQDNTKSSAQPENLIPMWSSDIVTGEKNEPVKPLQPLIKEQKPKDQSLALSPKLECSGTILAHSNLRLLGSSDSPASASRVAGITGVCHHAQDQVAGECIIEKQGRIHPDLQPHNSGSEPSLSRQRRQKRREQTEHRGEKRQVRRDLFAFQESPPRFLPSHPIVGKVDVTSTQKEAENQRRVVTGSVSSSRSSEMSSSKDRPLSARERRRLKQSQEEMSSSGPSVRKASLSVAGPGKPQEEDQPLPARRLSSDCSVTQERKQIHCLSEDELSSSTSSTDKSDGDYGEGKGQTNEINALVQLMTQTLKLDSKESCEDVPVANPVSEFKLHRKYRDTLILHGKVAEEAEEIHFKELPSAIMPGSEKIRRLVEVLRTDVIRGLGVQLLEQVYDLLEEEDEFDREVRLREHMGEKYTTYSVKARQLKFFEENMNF
Description: as §1

[3] = biological target: FLT3 (K663Q) (Homo sapiens (Human), UniProt P36888, K663Q); conditions: read-out: percent of control
Description: as §1

[4] = biological target: MLK1 (Homo sapiens (Human), UniProt P80192); conditions: read-out: percent of control
Description: as §1

[5] = biological target: PDPK1 (Homo sapiens (Human), UniProt O15530); conditions: read-out: percent of control
Chain of PDPK1 (O15530 whole entry): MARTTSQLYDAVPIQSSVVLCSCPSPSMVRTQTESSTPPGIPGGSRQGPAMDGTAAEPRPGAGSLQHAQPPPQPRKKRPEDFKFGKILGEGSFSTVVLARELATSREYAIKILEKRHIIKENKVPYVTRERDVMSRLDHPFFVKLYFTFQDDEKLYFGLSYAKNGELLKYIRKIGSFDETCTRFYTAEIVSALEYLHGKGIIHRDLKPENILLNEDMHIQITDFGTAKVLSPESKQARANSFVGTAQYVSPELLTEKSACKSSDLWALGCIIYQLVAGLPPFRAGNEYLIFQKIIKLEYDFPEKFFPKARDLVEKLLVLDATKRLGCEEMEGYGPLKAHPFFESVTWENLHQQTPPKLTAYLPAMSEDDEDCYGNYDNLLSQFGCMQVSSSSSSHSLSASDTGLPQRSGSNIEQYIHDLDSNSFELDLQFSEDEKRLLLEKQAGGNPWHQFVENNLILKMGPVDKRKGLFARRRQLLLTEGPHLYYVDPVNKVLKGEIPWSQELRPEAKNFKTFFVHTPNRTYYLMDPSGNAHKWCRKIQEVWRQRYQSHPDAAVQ
Description: as §1

[6] = biological target: ITK (Homo sapiens (Human), UniProt Q08881); conditions: read-out: percent of control
Description: as §1

[7] = biological target: LRRK2(G2019S) (Homo sapiens (Human), UniProt Q5S007, G2019S); conditions: read-out: percent of control
Description: as §1

[8] = biological target: EPHA7 (Homo sapiens (Human), UniProt Q15375); conditions: read-out: percent of control
Description: as §1

[9] = biological target: RET (Homo sapiens (Human), UniProt P07949); conditions: read-out: percent of control
Chain of RET (P07949 29-1114): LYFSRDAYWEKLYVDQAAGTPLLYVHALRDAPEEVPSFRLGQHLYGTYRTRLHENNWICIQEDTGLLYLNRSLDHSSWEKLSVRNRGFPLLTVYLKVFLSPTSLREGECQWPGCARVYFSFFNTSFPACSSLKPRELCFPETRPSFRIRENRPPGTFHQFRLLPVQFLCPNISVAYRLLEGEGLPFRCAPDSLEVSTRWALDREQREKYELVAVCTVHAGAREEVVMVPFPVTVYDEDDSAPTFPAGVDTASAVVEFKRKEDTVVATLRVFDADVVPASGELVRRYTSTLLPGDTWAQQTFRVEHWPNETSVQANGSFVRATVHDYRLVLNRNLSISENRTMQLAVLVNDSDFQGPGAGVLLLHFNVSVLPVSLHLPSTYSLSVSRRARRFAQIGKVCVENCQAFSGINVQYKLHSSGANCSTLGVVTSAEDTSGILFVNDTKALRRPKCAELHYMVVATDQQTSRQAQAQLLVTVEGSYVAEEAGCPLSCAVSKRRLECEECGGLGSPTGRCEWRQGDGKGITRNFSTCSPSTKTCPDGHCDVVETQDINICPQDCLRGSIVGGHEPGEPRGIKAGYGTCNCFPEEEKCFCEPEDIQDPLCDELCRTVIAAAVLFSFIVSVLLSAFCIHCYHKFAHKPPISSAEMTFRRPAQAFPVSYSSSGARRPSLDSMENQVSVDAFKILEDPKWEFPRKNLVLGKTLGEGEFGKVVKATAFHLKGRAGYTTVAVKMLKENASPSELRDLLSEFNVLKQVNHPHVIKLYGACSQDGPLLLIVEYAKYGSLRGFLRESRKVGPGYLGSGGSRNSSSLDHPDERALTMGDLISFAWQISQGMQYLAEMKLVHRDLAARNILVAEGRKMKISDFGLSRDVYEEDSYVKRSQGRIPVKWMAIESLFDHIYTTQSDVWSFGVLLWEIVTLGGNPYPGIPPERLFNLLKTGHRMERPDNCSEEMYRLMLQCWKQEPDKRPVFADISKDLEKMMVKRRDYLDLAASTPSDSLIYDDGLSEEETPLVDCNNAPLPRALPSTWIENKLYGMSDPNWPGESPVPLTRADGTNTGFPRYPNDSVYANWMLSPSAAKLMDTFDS
Description: as §1

[10] = biological target: FER (Homo sapiens (Human), UniProt P16591); conditions: read-out: percent of control
Description: as §1

[11] = biological target: RIPK4 (Homo sapiens (Human), UniProt P57078); conditions: read-out: percent of control
Description: as §1

[12] = biological target: ALK (Homo sapiens (Human), UniProt Q9UM73); conditions: read-out: percent of control
Description: as §1

[13] = biological target: PFPK5(P.falciparum) (Plasmodium falciparum (isolate 3D7), UniProt P61075); conditions: read-out: percent of control
Description: as §1

[14] = biological target: CAMK4 (Homo sapiens (Human), UniProt Q16566); conditions: read-out: percent of control
Description: as §1

[15] = biological target: EPHA1 (Homo sapiens (Human), UniProt P21709); conditions: read-out: percent of control
Description: as §1

[16] = biological target: PFTK1 (Homo sapiens (Human), UniProt O94921); conditions: read-out: percent of control
Description: as §1

[17] = biological target: TNNI3K (Homo sapiens (Human), UniProt Q59H18); conditions: read-out: percent of control
Description: as §1

[18] = biological target: LOK (Homo sapiens (Human), UniProt O94804); conditions: read-out: percent of control
Description: as §1

[19] = biological target: EPHB3 (Homo sapiens (Human), UniProt P54753); conditions: read-out: percent of control
Description: as §1

[20] = biological target: IRAK3 (Homo sapiens (Human), UniProt Q9Y616); conditions: read-out: percent of control
Description: as §1

[21] = biological target: CDKL5 (Homo sapiens (Human), UniProt O76039); conditions: read-out: percent of control
Description: as §1

[22] = biological target: PIM1 (Homo sapiens (Human), UniProt P11309); conditions: read-out: percent of control
Chain of PIM1 (P11309 whole entry): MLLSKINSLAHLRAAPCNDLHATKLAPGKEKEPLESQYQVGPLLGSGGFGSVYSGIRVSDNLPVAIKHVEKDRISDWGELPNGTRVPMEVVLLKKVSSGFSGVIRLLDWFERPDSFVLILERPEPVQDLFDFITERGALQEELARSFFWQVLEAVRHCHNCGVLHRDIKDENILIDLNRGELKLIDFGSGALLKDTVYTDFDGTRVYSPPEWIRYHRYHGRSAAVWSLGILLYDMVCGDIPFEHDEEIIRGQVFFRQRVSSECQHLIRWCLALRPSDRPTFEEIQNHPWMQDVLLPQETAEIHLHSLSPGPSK
Description: as §1

[23] = biological target: IKK-beta (Homo sapiens (Human), UniProt O14920); conditions: read-out: percent of control
Chain of IKK-beta (O14920 whole entry): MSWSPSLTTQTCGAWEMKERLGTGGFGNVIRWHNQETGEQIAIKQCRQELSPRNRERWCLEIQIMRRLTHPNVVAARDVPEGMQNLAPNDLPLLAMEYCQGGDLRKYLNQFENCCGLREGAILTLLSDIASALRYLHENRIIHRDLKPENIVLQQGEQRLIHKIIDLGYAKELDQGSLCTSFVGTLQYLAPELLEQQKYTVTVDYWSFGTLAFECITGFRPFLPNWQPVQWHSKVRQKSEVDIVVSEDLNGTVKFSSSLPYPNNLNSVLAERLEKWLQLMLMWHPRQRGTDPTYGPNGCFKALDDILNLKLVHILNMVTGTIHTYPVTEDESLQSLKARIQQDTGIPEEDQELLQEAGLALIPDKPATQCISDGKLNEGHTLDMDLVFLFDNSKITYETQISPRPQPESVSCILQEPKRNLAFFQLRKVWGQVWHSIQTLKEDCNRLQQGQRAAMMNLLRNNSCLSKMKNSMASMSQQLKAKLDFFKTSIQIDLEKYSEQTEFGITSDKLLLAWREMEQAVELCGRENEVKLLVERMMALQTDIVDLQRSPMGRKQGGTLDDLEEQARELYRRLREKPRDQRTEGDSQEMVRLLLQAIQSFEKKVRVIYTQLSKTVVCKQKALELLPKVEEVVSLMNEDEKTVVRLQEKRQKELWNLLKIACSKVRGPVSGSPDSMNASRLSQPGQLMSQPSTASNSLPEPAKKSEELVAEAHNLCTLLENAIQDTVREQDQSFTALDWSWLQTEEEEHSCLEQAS
Description: as §1

[24] = biological target: MYO3A (Homo sapiens (Human), UniProt Q8NEV4); conditions: read-out: percent of control
Description: as §1

[25] = biological target: MEK5 (Homo sapiens (Human), UniProt Q13163); conditions: read-out: percent of control
Chain of MEK5 (Q13163 whole entry): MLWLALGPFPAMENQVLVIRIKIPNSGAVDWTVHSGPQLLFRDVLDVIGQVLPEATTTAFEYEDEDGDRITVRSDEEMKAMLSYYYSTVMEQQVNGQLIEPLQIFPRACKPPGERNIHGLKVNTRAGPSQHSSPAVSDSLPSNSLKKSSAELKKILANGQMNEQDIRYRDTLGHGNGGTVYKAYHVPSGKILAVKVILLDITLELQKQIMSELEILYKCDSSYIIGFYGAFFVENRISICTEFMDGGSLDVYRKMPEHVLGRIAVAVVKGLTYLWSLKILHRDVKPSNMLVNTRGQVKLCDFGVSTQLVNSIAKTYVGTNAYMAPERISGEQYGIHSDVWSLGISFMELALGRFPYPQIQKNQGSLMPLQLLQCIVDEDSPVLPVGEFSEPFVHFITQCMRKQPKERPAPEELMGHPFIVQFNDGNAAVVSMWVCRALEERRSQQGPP
Description: as §1

[26] = biological target: TYR (Homo sapiens (Human), UniProt Q06418); conditions: read-out: percent of control
Description: as §1

[27] = tested on: FLT3 (ITD); conditions: 1 μM
Description: as §1

[28] = biological target: PKN1 (Homo sapiens (Human), UniProt Q16512); conditions: read-out: percent of control
Description: as §1

[29] = biological target: CAMK1D (Homo sapiens (Human), UniProt Q8IU85); conditions: read-out: percent of control
Description: as §1

[30] = biological target: p38-beta (Homo sapiens (Human), UniProt Q15759); conditions: read-out: percent of control
Description: as §1

[31] = biological target: PAK7 (Homo sapiens (Human), UniProt Q9P286); conditions: read-out: percent of control
Description: as §1

[32] = biological target: MYLK (Homo sapiens (Human), UniProt Q15746); conditions: read-out: percent of control
Description: as §1

[33] = biological target: NLK (Homo sapiens (Human), UniProt Q9UBE8); conditions: read-out: percent of control
Description: as §1

[34] = biological target: MEK4 (Homo sapiens (Human), UniProt P45985); conditions: read-out: percent of control
Description: as §1

[35] = biological target: AURKA (Homo sapiens (Human), UniProt O14965); conditions: read-out: percent of control
Chain of AURKA (O14965 whole entry): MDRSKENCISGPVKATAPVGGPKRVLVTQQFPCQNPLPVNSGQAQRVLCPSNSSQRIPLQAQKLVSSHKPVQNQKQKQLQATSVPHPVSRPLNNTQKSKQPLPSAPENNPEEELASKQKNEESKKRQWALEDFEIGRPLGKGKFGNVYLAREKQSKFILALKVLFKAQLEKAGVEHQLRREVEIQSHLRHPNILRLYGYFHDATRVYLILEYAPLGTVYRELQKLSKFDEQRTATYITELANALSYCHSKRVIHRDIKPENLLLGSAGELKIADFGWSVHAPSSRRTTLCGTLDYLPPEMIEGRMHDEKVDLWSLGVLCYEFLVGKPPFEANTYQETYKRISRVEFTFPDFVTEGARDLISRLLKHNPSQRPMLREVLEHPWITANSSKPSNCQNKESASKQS
Description: as §1

[36] = biological target: PLK3 (Homo sapiens (Human), UniProt Q9H4B4); conditions: read-out: percent of control
Chain of PLK3 (Q9H4B4 whole entry): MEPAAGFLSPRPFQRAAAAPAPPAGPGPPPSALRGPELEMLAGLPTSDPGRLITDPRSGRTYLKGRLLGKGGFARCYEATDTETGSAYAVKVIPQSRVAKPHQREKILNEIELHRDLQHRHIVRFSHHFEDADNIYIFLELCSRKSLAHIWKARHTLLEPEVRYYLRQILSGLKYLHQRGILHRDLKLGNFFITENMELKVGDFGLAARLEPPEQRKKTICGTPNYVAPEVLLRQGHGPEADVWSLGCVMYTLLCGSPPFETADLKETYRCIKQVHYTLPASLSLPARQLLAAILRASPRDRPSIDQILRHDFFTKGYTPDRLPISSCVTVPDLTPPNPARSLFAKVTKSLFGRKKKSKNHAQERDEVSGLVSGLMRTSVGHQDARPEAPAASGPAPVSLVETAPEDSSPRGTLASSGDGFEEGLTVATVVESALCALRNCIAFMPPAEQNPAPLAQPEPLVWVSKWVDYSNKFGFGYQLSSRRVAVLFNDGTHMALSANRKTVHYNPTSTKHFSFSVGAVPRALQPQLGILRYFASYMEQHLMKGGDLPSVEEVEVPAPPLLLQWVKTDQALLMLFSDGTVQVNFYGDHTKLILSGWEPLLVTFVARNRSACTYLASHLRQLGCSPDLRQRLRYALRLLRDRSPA
Description: as §1

[37] = biological target: NEK3 (Homo sapiens (Human), UniProt P51956); conditions: read-out: percent of control
Description: as §1

[38] = biological target: FLT3 (D835Y) (Homo sapiens (Human), UniProt P36888, D835Y); conditions: read-out: percent of control
Description: as §1

[39] = biological target: KIT(V559D,V654A) (Homo sapiens (Human), UniProt P10721, V559D/V654A); conditions: read-out: percent of control
Description: as §1

SMILES | remaining binding at 1 µM [1] [%] | remaining binding at 1 µM [2] [%] | remaining binding at 1 µM [3] [%] | remaining binding at 1 µM [4] [%] | remaining binding at 1 µM [5] [%] | remaining binding at 1 µM [6] [%] | remaining binding at 1 µM [7] [%] | remaining binding at 1 µM [8] [%] | remaining binding at 1 µM [9] [%] | remaining binding at 1 µM [10] [%] | remaining binding at 1 µM [11] [%] | remaining binding at 1 µM [12] [%] | remaining binding at 1 µM [13] [%] | remaining binding at 1 µM [14] [%] | remaining binding at 1 µM [15] [%] | remaining binding at 1 µM [16] [%] | remaining binding at 1 µM [17] [%] | remaining binding at 1 µM [18] [%] | remaining binding at 1 µM [19] [%] | remaining binding at 1 µM [20] [%] | other results
CCN1CCN(Cc2cc(NC(=O)c3ccc(C)c(-c4ccc5nc(NC(=O)C6CC6)cn5n4)c3)cc(C(F)(F)F)c2)CC1 [Compound I-2, 3-(2-(cyclopropanecarboxamido)imidazo[1,2-b]pyridazin-6-yl)-N-(3-((4-ethylpiperazin-1-yl)methyl)-5-(trifluoromethyl)phenyl)-4-methylbenzamide] | 95 | 28 | 5.6 | 75 | 89 | 1.4 | 84 | 3.3 | 0 | 29 | 98 | 8.7 | 91 | 94 | 44 | 0.35 | 56 | 0 | 30 | 90 | remaining binding at 1 µM [21]: 95%; remaining binding at 1 µM [22]: 90%; remaining binding at 1 µM [23]: 50%; remaining binding at 1 µM [24]: 85%; remaining binding at 1 µM [25]: 21%; remaining binding at 1 µM [26]: 26%; percent of control [27]: 1.6%; remaining binding at 1 µM [28]: 98%; remaining binding at 1 µM [29]: 97%; remaining binding at 1 µM [30]: 60%; remaining binding at 1 µM [31]: 73%; remaining binding at 1 µM [32]: 65%; remaining binding at 1 µM [33]: 95%; remaining binding at 1 µM [34]: 98%; remaining binding at 1 µM [35]: 64%; remaining binding at 1 µM [36]: 100%; remaining binding at 1 µM [37]: 100%; remaining binding at 1 µM [38]: 23%; remaining binding at 1 µM [39]: 6.1%
CCN1CCN(Cc2cc(NC(=O)c3ccc(C)c(-c4ccc5nc(NC(=O)C6CC6)cn5c4)c3)cc(C(F)(F)F)c2)CC1 [Compound I-6, 3-(2-(cyclopropanecarboxamido)imidazo[1,2-a]pyridin-6-yl)-N-(3-((4-ethylpiperazin-1-yl)methyl)-5-(trifluoromethyl)phenyl)-4-methylbenzamide] | 97 | 15 | 4.2 | 94 | 83 | 5.8 | 100 | 2 | 0 | 6 | 100 | 16 | 77 | 96 | 38 | 2.4 | 36 | 0 | 35 | 93 | remaining binding at 1 µM [21]: 100%; remaining binding at 1 µM [22]: 93%; remaining binding at 1 µM [23]: 80%; remaining binding at 1 µM [24]: 66%; remaining binding at 1 µM [25]: 17%; remaining binding at 1 µM [26]: 47%; percent of control [27]: 1.4%; remaining binding at 1 µM [28]: 98%; remaining binding at 1 µM [29]: 93%; remaining binding at 1 µM [30]: 62%; remaining binding at 1 µM [31]: 98%; remaining binding at 1 µM [32]: 79%; remaining binding at 1 µM [33]: 100%; remaining binding at 1 µM [34]: 71%; remaining binding at 1 µM [35]: 94%; remaining binding at 1 µM [36]: 100%; remaining binding at 1 µM [37]: 96%; remaining binding at 1 µM [38]: 27%; remaining binding at 1 µM [39]: 7.4%
